According to the NIST ThermoML archive (doi:10.1021/je3009073):

Experiment: xn = mol fraction of the nth substance listed
Conditions: 101 kPa, Liquid; for viscosity: Capillary tube (Ostwald / Ubbelohde) method; for mass density: Pycnometric method

CC(O)C(=O)[O-].CN(C)C(N)=[N+](C)C [1,1,3,3-tetramethylguanidinium lactate] + O
Conditions | mass density [kg/m3] | viscosity [mPa·s]
303.15 K, x2 = 0 | 1123.5 | 13684
303.15 K, x2 = 0.1001 | 1124 | 7665.3
303.15 K, x2 = 0.2165 | 1124.3 | 3594.1
303.15 K, x2 = 0.3182 | 1124.7 | 1926
303.15 K, x2 = 0.409 | 1124.9 | 1128.2
303.15 K, x2 = 0.5036 | 1124.5 | 554.56
303.15 K, x2 = 0.6044 | 1122.8 | 253.27
303.15 K, x2 = 0.7034 | 1119.9 | 104.72
303.15 K, x2 = 0.8113 | 1111.2 | 32.59
303.15 K, x2 = 0.9017 | 1088.3 | 8.68
303.15 K, x2 = 0.95 | 1058.1 | 3.32
308.15 K, x2 = 0 | 1120.9 | 7295.9
308.15 K, x2 = 0.1001 | 1121.2 | 4186.3
308.15 K, x2 = 0.2165 | 1121.5 | 2150.1
308.15 K, x2 = 0.3182 | 1121.9 | 1141.9
308.15 K, x2 = 0.409 | 1122.1 | 698
308.15 K, x2 = 0.5036 | 1121.3 | 352.18
308.15 K, x2 = 0.6044 | 1119.7 | 175.49
308.15 K, x2 = 0.7034 | 1116.7 | 74.98
308.15 K, x2 = 0.8113 | 1107.9 | 25.05
308.15 K, x2 = 0.9017 | 1084.9 | 7.1
308.15 K, x2 = 0.95 | 1055 | 2.83
313.15 K, x2 = 0 | 1117.6 | 3961.9
313.15 K, x2 = 0.1001 | 1117.9 | 2412.1
313.15 K, x2 = 0.2165 | 1118.1 | 1263.3
313.15 K, x2 = 0.3182 | 1118.4 | 718.88
313.15 K, x2 = 0.409 | 1118.5 | 429.45
313.15 K, x2 = 0.5036 | 1117.6 | 235.35
313.15 K, x2 = 0.6044 | 1116.1 | 122.11
313.15 K, x2 = 0.7034 | 1113.1 | 55.39
313.15 K, x2 = 0.8113 | 1104.2 | 19.16
313.15 K, x2 = 0.9017 | 1081.5 | 5.87
313.15 K, x2 = 0.95 | 1051.5 | 2.41
318.15 K, x2 = 0 | 1114.3 | 2264.3
318.15 K, x2 = 0.1001 | 1114.5 | 1261.7
318.15 K, x2 = 0.2165 | 1114.6 | 797.81
318.15 K, x2 = 0.3182 | 1114.9 | 458.45
318.15 K, x2 = 0.409 | 1114.9 | 289.6
318.15 K, x2 = 0.5036 | 1114.1 | 167.33
318.15 K, x2 = 0.6044 | 1112.6 | 89.04
318.15 K, x2 = 0.7034 | 1109.6 | 42
318.15 K, x2 = 0.8113 | 1100.6 | 15.25
318.15 K, x2 = 0.9017 | 1078.1 | 4.94
318.15 K, x2 = 0.95 | 1048.4 | 2.1
323.15 K, x2 = 0 | 1111.6 | 1365.5
323.15 K, x2 = 0.1001 | 1111.7 | 890.99
323.15 K, x2 = 0.2165 | 1111.7 | 502.11
323.15 K, x2 = 0.3182 | 1112 | 310.53
323.15 K, x2 = 0.409 | 1111.8 | 201.98
323.15 K, x2 = 0.5036 | 1111.1 | 120.29
323.15 K, x2 = 0.6044 | 1109.2 | 64.59
323.15 K, x2 = 0.7034 | 1106.7 | 32.53
323.15 K, x2 = 0.8113 | 1097.1 | 12.34
323.15 K, x2 = 0.9017 | 1074.5 | 4.2
323.15 K, x2 = 0.95 | 1045.6 | 1.86
328.15 K, x2 = 0 | 1108.1 | 867.05
328.15 K, x2 = 0.1001 | 1108.1 | 579.99
328.15 K, x2 = 0.2165 | 1108.2 | 341
328.15 K, x2 = 0.3182 | 1108.4 | 218.6
328.15 K, x2 = 0.409 | 1108.2 | 146.62
328.15 K, x2 = 0.5036 | 1107.4 | 88.71
328.15 K, x2 = 0.6044 | 1105.6 | 49.38
328.15 K, x2 = 0.7034 | 1102.9 | 25.68
328.15 K, x2 = 0.8113 | 1093.2 | 10.19
328.15 K, x2 = 0.9017 | 1070.6 | 3.62
328.15 K, x2 = 0.95 | 1042.5 | 1.65

CC(O)C(=O)[O-].[NH3+]CCO (stereo not drawn) [2-hydroxyethylammonium lactate] + O
Conditions | mass density [kg/m3] | viscosity [mPa·s]
303.15 K, x2 = 0 | 1226.1 | 11341
303.15 K, x2 = 0.116 | 1225.3 | 6523.5
303.15 K, x2 = 0.2026 | 1223 | 3828.7
303.15 K, x2 = 0.3045 | 1220 | 2137.9
303.15 K, x2 = 0.4043 | 1216.5 | 1051
303.15 K, x2 = 0.5027 | 1210.1 | 498.98
303.15 K, x2 = 0.6023 | 1203.2 | 212
303.15 K, x2 = 0.7016 | 1190.3 | 74.69
303.15 K, x2 = 0.8022 | 1167.2 | 22.28
303.15 K, x2 = 0.9007 | 1121 | 5.19
303.15 K, x2 = 0.9501 | 1076 | 2.24
308.15 K, x2 = 0 | 1223.1 | 6699.9
308.15 K, x2 = 0.116 | 1222.2 | 3975.1
308.15 K, x2 = 0.2026 | 1219.9 | 2401.1
308.15 K, x2 = 0.3045 | 1216.9 | 1372.6
308.15 K, x2 = 0.4043 | 1213.4 | 675.18
308.15 K, x2 = 0.5027 | 1206.9 | 343.45
308.15 K, x2 = 0.6023 | 1200.2 | 156.6
308.15 K, x2 = 0.7016 | 1187.2 | 56.32
308.15 K, x2 = 0.8022 | 1164.2 | 18.03
308.15 K, x2 = 0.9007 | 1118.2 | 4.46
308.15 K, x2 = 0.9501 | 1073.5 | 1.97
313.15 K, x2 = 0 | 1220.4 | 4144.6
313.15 K, x2 = 0.116 | 1219.5 | 2468.4
313.15 K, x2 = 0.2026 | 1217.1 | 1570.4
313.15 K, x2 = 0.3045 | 1214.1 | 900.49
313.15 K, x2 = 0.4043 | 1210.6 | 458.18
313.15 K, x2 = 0.5027 | 1204.1 | 243.72
313.15 K, x2 = 0.6023 | 1197.3 | 109.99
313.15 K, x2 = 0.7016 | 1184.3 | 43.42
313.15 K, x2 = 0.8022 | 1161.5 | 14.62
313.15 K, x2 = 0.9007 | 1115.7 | 3.83
313.15 K, x2 = 0.9501 | 1071.2 | 1.74
318.15 K, x2 = 0 | 1217.4 | 2653.8
318.15 K, x2 = 0.116 | 1216.3 | 1615.5
318.15 K, x2 = 0.2026 | 1213.9 | 1047.4
318.15 K, x2 = 0.3045 | 1211 | 601.07
318.15 K, x2 = 0.4043 | 1207.6 | 321.24
318.15 K, x2 = 0.5027 | 1201 | 174.88
318.15 K, x2 = 0.6023 | 1194.2 | 83.91
318.15 K, x2 = 0.7016 | 1181.2 | 34.39
318.15 K, x2 = 0.8022 | 1158.4 | 11.85
318.15 K, x2 = 0.9007 | 1112.7 | 3.35
318.15 K, x2 = 0.9501 | 1068.4 | 1.57
323.15 K, x2 = 0 | 1214.9 | 1733.6
323.15 K, x2 = 0.116 | 1213.7 | 1084.5
323.15 K, x2 = 0.2026 | 1211.3 | 717.58
323.15 K, x2 = 0.3045 | 1208.3 | 418.69
323.15 K, x2 = 0.4043 | 1204.9 | 232.51
323.15 K, x2 = 0.5027 | 1198.1 | –
323.15 K, x2 = 0.6023 | 1191.5 | 64.89
323.15 K, x2 = 0.7016 | 1178.4 | 27.88
323.15 K, x2 = 0.8022 | 1155.7 | 9.96
323.15 K, x2 = 0.9007 | 1110.1 | 2.94
323.15 K, x2 = 0.9501 | 1065.8 | 1.41
328.15 K, x2 = 0 | 1212 | 1182.5
328.15 K, x2 = 0.116 | 1210.6 | 742.12
328.15 K, x2 = 0.2026 | 1208.1 | 478.37
328.15 K, x2 = 0.3045 | 1205.3 | 299.81
328.15 K, x2 = 0.4043 | 1201.7 | 173.38
328.15 K, x2 = 0.5027 | 1195.1 | 99.46
328.15 K, x2 = 0.6023 | 1188.4 | 50.52
328.15 K, x2 = 0.7016 | 1175.3 | 22.65
328.15 K, x2 = 0.8022 | 1152.6 | 8.43
328.15 K, x2 = 0.9007 | 1107 | 2.61
328.15 K, x2 = 0.9501 | 1063 | 1.25
